Publication PMC10510102, “Efficient Ligand Discovery Using Sulfur(VI) Fluoride Reactive Fragments” (ACS Chemical Biology, 2023)

How the values were obtained:
[1] = molecular target: T1, CAII (Homo sapiens, UniProt P00918); assay: Kinetic analyses of covalent modification, intact protein LC-MS; assay type: binding; parameters: purchased Sigma Aldrich C6624-500UG; host or cells: E. coli; conditions: 0.5 μM CAII; 5-100 μM SF; 0-24 h; 20 °C
Experimental: The kinetics of binding were investigated by incubation of the resynthesized and purified SFs 2b–e with CAII at a range of concentrations and analysis by intact protein LC–MS over a 24 h period (see Figure S9). The concentration–response was analyzed based on a two-step model of reversible ligand (L) binding and subsequent irreversible covalent modification of the protein (P) (P + L ⇌ P·L → PL) (see Figure S10).[24] Time courses were fit to a single exponential function to give a kobs for each concentration (Figure 3d). These were then fitted using a Michaelis–Menten model to determine kinact (corresponding to the rate of covalent-bond formation) and KI (corresponding to the recognition of the ligand for the protein pocket) (Figure 3e,f). […]. This is consistent with the strong binding of aryl sulfonamides to the CAII Zn^2+ binding pocket.[33] […] The slow rate of the reaction may be attributed to a suboptimal trajectory of the SF group toward the His64 residue in the reversible bound conformation and/or low nucleophilicity of the residue.[14]
The (resynthesized and purified) SF hits (2b–e, 10 mM) were plated into seven 384-well plates with DMSO to make up identical plates with final concentrations of 100, 50, 20, 10, or 5 μM after adding 15 μL of protein stock solution per well. The percentage of DMSO was kept constant. Purified CAII was subsequently added across all plates. Final concentrations were 0.5 μM protein; 100, 50, 20, 10, or 5 μM SF. The plates were sealed and centrifuged, and the first six plates were immediately queued for analysis by intact protein LC–MS at a temperature of 20 °C with the final plate paused for a 24 h timepoint.
5. CAII – kinetic analyzes
5.1. Protocol for kinetic analyzes (CAII)
The (resynthesized and purified) SF hits (2b–e) were plated into seven Greiner 384 white low volume plate from a 10 mM source in DMSO. Differing volumes were added such that the final concentrations for each compound would be: 100, 50, 20, 10, or 5 µM after adding 15 µL of protein stock solution per well. Volumes of DMSO were made to be consistent for every well. Purified CAII diluted from original stock into a buffer made up of HEPES (pH 7.5, 25 mM) and NaCl (50 mM) in distilled MS-grade water (15 µL per well) was subsequently added across the plates. Final concentrations: 0.5 µM protein; 100, 50, 20, 10, or 5 µM SF. The plates were sealed, centrifuged (1 min, 1000 rpm), and the first six plates were immediately queued for analysis by intact protein LC-MS at a temperature of 20 °C with the final plate paused for a 24 h timepoint. The resulting modification yields were plotted in GraphPad Prism (Version 5.0.4) software against the time of sampling.11 Non-linear regression analyzes were conducted using a ‘one-phase association’ model, with the y=0 value constrained to ‘0’ and plateau value constrained to ‘100’. The observed rate constants (kobs, value ‘K’ in GraphPad) were extracted for each compound at each concentration, then replotted against the corresponding compound concentration. Further non-linear regression analyzes were conducted using a ‘Michaelis-Menten’ model, from which kinact values (‘Vmax’ in GraphPad) and KI values (‘Km’) were extracted. […]
To a Labcyte 384LDV plate containing 96 amine functionalized fragments (10 mM) in DMSO (5 µL per well) was added a stock solution of OSu 2a (10 mM) and NEM (30 mM) in DMSO (5 µL per well). The plate was sealed, centrifuged (1 min, 1000 rpm), and allowed to sit at room temperature for 1 h. After the reaction (assumed product concentration: 5 mM), a Labcyte ECHO© 555 Liquid Handler was used to transfer the library of SFs to a Greiner 384 white low volume plate. […]

[2] = molecular target: T1, CAII; assay: Identification of site of covalent modification by tandem MS; parameters: purchased Sigma Aldrich C6624-500UG; host or cells: E. coli; conditions: for major site of covalent modification: 2 μM CAII, 50 μM SF, 24 h, 20 °C, trypsin digest LC-MS/MS; for minor site of covalent modification: N-terminal peptide 1MSHHWGYGK9
Text: Tandem MS analyses were subsequently employed for identification of the amino acid residue(s) that was covalently modified. Samples of CAII modified by the resynthesized and purified SFs 2d and 2e were digested using trypsin and analyzed by LC–MS/MS. This identified peptides 59ILNNGH*AFNVEFDDSQDKAVLK80 and 59ILNNGH*AFNVEFDDSQDK76 as the major site(s) of modification on His64 for both 2d (366 Da) (see Figure S6) and 2e (380 Da) (Figure 3b), respectively. Further to this, minor modifications were observed on the N-terminal peptide 1MSHHWGYGK9 at His3 (2d and 2e) and Tyr7 (2d only).
The (resynthesized and purified) SF hits (2d and 2e, 10 mM) were plated into a 384-well plate. Purified CAII was subsequently added across the plate. Final concentrations: 2 μM protein; 50 μM SF. The plate was sealed, centrifuged, and incubated at 20 °C for 24 h, and 15 μL aliquots were subsequently removed and analyzed by intact protein LC–MS. The remaining samples (1 μg) were separated by sodium dodecyl sulfate-polyacrylamide gel electrophoresis to remove excess unbound compounds. Gels were stained with colloidal Comassie InstantBlue, and bands corresponding to CAII were excised, reduced with TCEP (10 mM, 65 °C, 30 min), and alkylated with iodoacetamide (10 mM, rt, 30 min, dark). Samples were digested with trypsin (1:10 E/S, 37 °C, 16 h) in ammonium bicarbonate (100 mM). After removal of the supernatant, peptides were extracted using acetonitrile. Combined supernatants were centrifuged and acidified prior to injection into the LC–MS/MS system. Tandem MS spectra were searched for peptide matches against the sequence for CAII. Raw files were searched using trypsin as the enzyme. Masses corresponding to [SF – HF] were allowed as variable modification(s) on cysteine, histidine, lysine, tyrosine, serine, and threonine as well as the protein N-terminus. MS/MS spectra were manually validated and annotated. […]
4.2. Identification of the site of covalent modification by tandem MS (CAII)
The (resynthesized and purified) SF hits (2d and 2e) were plated into a Greiner 384 PP F-bottom plate from a 10 mM source in DMSO.
Purified CAII diluted from original stock into a buffer made up of HEPES (pH 7.5, 25 mM) and NaCl (50 mM) in distilled MS-grade water (50 µL per well) was subsequently added across the plate. Final concentrations: 2 µM protein; 50 µM SF. The plate was sealed, centrifuged (1 min, 1000 rpm), incubated at 20 °C for 24 h, and 15 µL aliquots were subsequently removed and analyzed by intact protein LC-MS. The remaining samples (1 μg) were separated by SDS-PAGE to remove excess unbound compound. Gels were stained with colloidal Comassie InstantBlue and bands corresponding to CAII were excised, reduced with 10 mM TCEP (65 °C, 30 mins), and alkylated with 10 mM iodoacetamide (r.t., 30 mins, dark). […]

Compound | KI (inactivation) [1] [µM] | kinact [1] [s⁻¹] | kinact/KI [1] [M⁻¹ s⁻¹] | major site of covalent modification [2] | minor site of covalent modification [2] | Ki [1] [µM]
CC(NC(=O)Cc1ccc(S(=O)(=O)F)cc1)c1cccc(S(N)(=O)=O)c1 (stereo not shown) [2b] | 8.9 | 3.2e-05 | 3.6 | – | – | –
NS(=O)(=O)Cc1cccc(CNC(=O)Cc2ccc(S(=O)(=O)F)cc2)c1 [2c] | 16 | 3.3e-05 | 2 | – | – | –
NS(=O)(=O)c1cccc(CNC(=O)Cc2ccc(S(=O)(=O)F)cc2)c1 [2d] | – | 3e-05 | > 6.1 | His64 | His3 and Tyr7 | < 5
NS(=O)(=O)c1ccc(CCNC(=O)Cc2ccc(S(=O)(=O)F)cc2)cc1 [2e] | – | 1.8e-05 | > 3.6 | His64 | His3 | < 5
